Measurements published in PMC9059126, “Structure-Based Design of a Novel Class of Autotaxin Inhibitors Based on Endogenous Allosteric Modulators” (Journal of Medicinal Chemistry, 2022).
Where two headings read alike, the source gives them in different places.

Legend:
[1] = system: LPA1-HA-expressing HeLa-Flp-In cells; assay: Confocal microscopy for LPA1 internalization; type: cell-based, Human; conditions: 1 μM 18:1 LPC, 20 nM ATX, 15 min
Method: Human LPA1 cDNA was amplified by PCR to remove its stop codon and add the restriction sites for BamHI and XhoI, after which it was subcloned in an in-house produced pDNA5.1-HA vector. 0.2 μg of the resulting vector and 1.8 μg of pOG44 Flp-Recombinase Expression Vector (Invitrogen) were incubated with 6 μL of Fugene6 (Invitrogen) in 200 μL of OptiMEM (Gibco) for 30 min, after which the mix was added to previously produced HeLa-Flp-In cells.[43] Their medium was refreshed 24 h later, and selection with 1 μg/mL puromycin was started and maintained with resistant cells.
Serum-starved LPA1-HA-expressing HeLa-Flp-In cells cultured on 24 mm (#1,5) were treated with 1 μM LPC and 20 nM ATX in the presence or absence of 22 or 23 for 15 min in DMEM containing 0.05% fatty acid-free BSA. Subsequently, coverslips were washed and fixed with 4% PFA, permeabilized with 0.1% Triton X-100, and blocked with 2% BSA for 1 h. Incubation with anti-HA antibody (3F10 from Roche Diagnostics; 1:200) was done for 1 h, followed by incubation with donkey anti-rat Alexa Fluor 488-conjugated antibody (A-21208 from Invitrogen; 1:200) for 1 h at room temperature. For confocal microscopy, cells were washed with PBS, mounted with Immnuno-MountTM (Thermo Scientific), visualized on a LEICA TCS-SP5 confocal microscope (63× objective), and analyzed using ImageJ software.

BJeH fibroblasts = assay: AKT and ERK phosphorylation by western blotting; type: cell-based; conditions: Homo sapiens, 0.25 h, 15 min
Method: 100,000 BJeH cells were seeded in 12-well tissue culture plates and allowed to grow for 24 h in DMEM (GIBCO, Life Technologies) containing 10% FCS (Thermo Scientific) and 100 U mL^–1 streptomycin/penicillin (GIBCO, Life Technologies). Next, they were washed twice with phosphate-buffered saline (PBS) and serum-starved O/N. ATX 20 nM was incubated with inhibitors for 30 min in a serum-free medium containing 0.05% (w/v) fatty acid-free BSA (total volume 1 mL). The medium from the 12-well plates was removed and replaced with 1 mL of the ATX–inhibitor mixture. Cells were stimulated for 15 min, the medium was removed, and plates were immediately frozen on dry ice and stored at −80 °C. For western blotting, cells were washed with cold PBS; lysed in RIPA buffer; supplemented with protease inhibitors (Pierce), 20 mM NaF and 1 mM orthovanadate; and spun down. The protein concentration was measured using a BCA protein assay kit (Pierce), and LDS sample buffer (NuPAGE, Invitrogen) and 1 mM dithiothreitol were added to the lysate. 20 μg of the total protein was loaded on sodium dodecyl sulfate–polyacrylamide gel electrophoresis pre-cast gradient gels (4–12% Nu-Page Bis-Tris, Invitrogen), followed by transfer to a nitrocellulose membrane. Non-specific protein binding was blocked by 5% BSA in PBS-Tween (0.1%); the primary antibodies were phospho-Akt (Ser473), catalogue number: D93, dilution: 1:1,000; phospho-ERK1/2 (Thr202/Tyr204), catalogue number: D13.14.4E, dilution: 1:2,000, from Cell Signaling Technology. They were incubated O/N at 4 °C in PBS–Tween with 5% BSA, containing 0.1% NaN3. Blots were then incubated for 1 h at room temperature with monoclonal anti-β-actin antibody, clone AC-15, dilution: 1:10,000, from Sigma, which was dissolved in PBS–Tween with 5% skimmed milk containing 0.1% NaN3. HRP-conjugated secondary antibodies [goat anti-mouse (Bio-Rad), catalogue number: 1721011; goat anti-rabbit (Pierce), catalogue number: 1858415] were incubated for 1 h at room temperature in PBS–Tween with 2.5% BSA and developed using an ECL Western blot reagent.

MDA-MB-231 cells = assay: Boyden chamber cell migration assay; type: cell-based; conditions: migration for 4 h; for EC50: 20 nM ATX, 1 μM 18:1 LPC
Method: Migration of MDA-MB-231 cells was performed using 48-well chemotaxis chambers (Neuro Probe, Inc.) equipped with […] pore polycarbonate membranes, which were coated with fibronectin (10 μg/mL) (F1141, Sigma-Aldrich). Cells (2 × 10^6 cells/mL) were added to the upper chamber. 0.05% fatty acid-free BSA was used as a lysophospholipid carrier. Cells were allowed to migrate for 4 h at 37 °C in humidified air containing 5% CO2. Migrated cells were fixed in Diff-Quik Fix and stained using Diff-Quik II. Migration was quantified by color intensity measurements using Photoshop software.

ATX [2] = target: T1, ATX (Rattus norvegicus, UniProt Q64610); assay: Mechanistic studies: mode of inhibition and Ki from LPC titration; type: biochemical; set-up: made in house
Method: The biochemical studies of ATX lysoPLD activity were performed with ATX. Activity was measured by a coupled reaction with 1 U mL^–1 choline oxidase and 2 U mL^–1 horseradish peroxidase (HRP) and 2 mM homovanillic acid (HVA) (all from Sigma-Aldrich). For the assays, 14:0, 16:0, 18:1, and 20:0 LPC (Avanti Polar Lipids Inc.) were incubated with 20 nM ATX, reaching a final volume of 100 μL of the buffer, which contained 50 mM Tris, 0.01%, 50 mM CaCl2, Triton X-100, pH 7.4. Steady-state choline release was measured at 37 °C by HVA fluorescence at λex/λem = 320/460 nm in Corning 96- or 384-well OptiPlate (Sigma-Aldrich) and with a Pherastar plate reader (BMG Labtech). […] The resulting fluorescence intensity signal over time was used to model all inhibitor concentrations simultaneously using the following formula, where vmax and vmin were fitted for the minimum and maximum relative velocities, respectively, and ci corresponds to the inhibitor concentration for each assay[20] [drawing 1] 1
To statistically determine the chance of each type of inhibition, we calculated the α value in the partial mixed inhibition model (eq 5), where Part defines the partiality of the inhibition, and α > 1 or α = 1 correspond to competitive and non-competitive inhibition modes, respectively. Last, we utilized Akaike’s Information Criterion[42] to assess the significance of the analysis [drawing 5] 5

ATX [3] = target: T1, ATX; assay: Competition with LPA allostery (LPA-mediated activation of ATX); type: biochemical; set-up: made in house; conditions: inhibitor at concentrations close to or lower than IC50; 150 μM 18:1 LPC, 18:1 LPA, 20 nM ATX
Method: The activation assays using LPA were performed in a similar way to those done for the inhibitors. In this case, LPA was dissolved in ethanol/H20 (1:1) and 0.01% TX-100 and was added to the reaction buffer. The presence of ethanol was taken into account, and controls in the absence of ATX and/or LPC were employed to correct the kinetic data. ATX was incubated for 30 min with different concentrations of inhibitors and subsequently added to the reaction buffer containing 150 μM 18:1 LPC and different starting concentrations of 18:1 LPA. The slopes were calculated from at least 60 min after the addition of ATX. The percentage of LPA-driven activation was normalized to ATX in the absence of LPA and inhibitors, which represented 100% activity. Last, the activation constant or AC50 was obtained from the following equation [drawing 2] 2

ATX [4] = target: T1, ATX; assay: Choline oxidase-coupled choline-release assay of LPC hydrolysis by ATX
ATX [5] = conditions: cited from earlier work
ATX tunnel = system: ATX tunnel; set-up: method as in PMID 27075612; conditions: partial non-competitive modulators; cited from earlier work
[6] = 14:0 LPC, 150 μM LPC, 20 nM ATX
[7] = 16:0 LPC, 150 μM LPC, 20 nM ATX
[8] = 18:1 LPC, 150 μM LPC, 20 nM ATX
[9] = LPC hydrolysis assay, 20 nM ATX

Molecule: C[C@H](CCC(=O)N1CCC(Oc2ccc(B(O)O)cc2)CC1)[C@H]1CC[C@H]2C3[C@@H](O)C[C@@H]4C[C@H](O)CC[C@]4(C)[C@H]3CC[C@]12C (stereo partly drawn) [Compound 23]
- decrease of LPA1 internalization [1]: approximately 75%
- EC50 (BJeH fibroblasts; BJeH cells, 20 nM ATX, 1 μM 18:1 LPC, read-out: EC50 (P-AKT and P-ERK levels)): ~60 nM
- Emax (BJeH fibroblasts; BJeH, compared to uninhibited ATX incubated with LPC, read-out: reduction of maximal effective cell response (P-AKT and P-ERK)): ~60%
- EC50 (MDA-MB-231 cells; Homo sapiens, MDA-MB-231, 4 h): 186 ± 99 nM
- EC50 (MDA-MB-231 cells): ~200 nM
- reduction of cell migration (MDA-MB-231 cells; ATX + LPC): ~50%
- percentage of competitive versus non-competitive inhibition (ATX [2]; Akaike's informative criteria): 99%
- mode of inhibition (ATX [2]; LPC hydrolysis): competitive
- Ki (ATX [2]; LPC titration at increasing inhibitor concentrations, Michaelis-Menten nonlinear regression): 9 ± 1 nM
- α (partial mixed inhibition model) (ATX [2]; α > 1 competitive, α = 1 non-competitive): 8.5
- LPA-mediated activation of ATX activity (ATX [3]): dose-dependent decrease
- IC50 (ATX [4]; [6]): 54 nM
- Residual Activity (%) (ATX [4]; [6]): 0%
- IC50 (ATX [4]; [7]): 34 nM
- Residual Activity (%) (ATX [4]; [7]): 12%
- IC50 (ATX [4]; [8]): 29 nM
- Residual Activity (%) (ATX [4]; [8]): 7%
- IC50 (ATX [4]; 20:0 LPC, 150 μM LPC, 20 nM ATX): 33 nM
- Residual Activity (%) (ATX [4]; 20:0 LPC, 150 μM LPC, 20 nM ATX, % of catalytic rate of inhibitor-free control): 51%
- IC50 (ATX [4]; [9]): 30 nM
- Residual Activity (%) (ATX [4]; [9]): 0%

Molecule: 2-[[2-Ethyl-6-[4-[2-(3-hydroxyazetidin-1-yl)-2-oxoethyl]piperazin-1-yl]-8-methylimidazo[1,2-a]pyridin-3-yl]methylamino]-4-(4-fluorophenyl)thiazole-5-carbonitrile [Compound 3]
- IC50 (ATX [5]): 131 nM

Molecule: C[C@H](CCC(=O)O)[C@H]1CC[C@H]2[C@@H]3[C@@H](O)C[C@@H]4C[C@H](O)CC[C@]4(C)[C@H]3CC[C@]12C [Compound 9, ursodeoxycholic acid, reference compound]
- affinity for the ATX tunnel (ATX tunnel): micromolar
- IC50 (ATX [4]): 9000 nM
